Assay results taken from US9889135B2, “Companion diagnostic for CDK4 inhibitors” (Memorial Sloan-Kettering Cancer Center, priority 2013, dated 2018).

How the values were obtained:
Type in all cases: cell-based, human
[1] = tested on: CHK2 mobility and KAP1 phosphorylation in WD/DDLS cell lines; test: markers of ATM activity by immunoblot; details: LS8817, LS141, LS8107, LS8313 and LS7785-1
Excerpt: (§1) Extracts from control and irradiated mouse embryo fibroblasts were included as a control. Tubulin is a control. (B) γH2AX and 53BP1 foci were scored in the indicated cell lines. As per (Doll et al., 2009; […] et al., 2012) having a cell with greater than 10 foci (white) is considered positive for DNA damage. As expected for WD/DDLS cell lines the basal level of DNA damage was quite high.

[2] = tested on: γH2AX and 53BP1 foci in LS8107 and LS7785-10 cells; test: DNA damage foci
Excerpt: as §1

[3] = tested on: γH2AX and 53BP1 foci in LS8817 cells; test: DNA damage foci
Excerpt: as §1

[4] = tested on: MDM2 in LS7785-1 and LS7785-10 cells; test: MDM2 turnover (cycloheximide chase), non-responder cells; details: non-responder cells LS7785-1 and LS7785-10; 1 μM for 48 hrs, then cycloheximide
Procedure: The level of MDM2 was measured by immunoblot (center). Tubulin was a loading control. […] This experiment was repeated at least three times on different biologic replicates. […] Tubulin is a loading control. Data compiled from at least three independent experiments is plotted (mean and standard deviation) and a representative immunoblot is shown. […] The graphs are compiled from the data obtained in three independent biologic replicates and representative autoradiographs are shown.

[5] = tested on: LS8817 cells with enforced MDM2 expression; test: PD0332991 response with enforced MDM2 expression
Procedure: (A) Immunoblot. […] Tubulin was a loading control. (B) Immunoblot. […] This experiment was carried out with three different pools of transductants multiple times (*p<0.05, **p<0.01). r^2 is calculated as the best-fit correlation.
FIG. 17. […] Cells transduced with an RFP expressing virus were used as a control.
For MDM2 and Rb expression, cells were infected with a lentivirus (pLOC, Open Biosystems) encoding either MDM2, MDM2 V75A, MDM2 I440A, MDM2 C464A, MDM2 Δ254-264, MDM2 L468A, MDM2 Δ464-471, MDM2 P476A, RB, LP-RB, PSM-RB or RFP. Transduced cells were selected for in media containing 3 μg/ml blasticidin and selection was maintained throughout the experiment.

`CC(=O)c1c(C)c2cnc(Nc3ccc(N4CCNCC4)cn3)nc2n(C2CCCC2)c1=O` [PD0332991] was tested, and the “CHK2 mobility or KAP1 phosphorylation, markers of ATM activity” value [1] was “did not induce significant changes”, the number of foci [2] was “largely unaffected” and the “number of γH2Ax and 5313P1 foci” value [3] was “reduced”. For the same compound, the MDM2 stability [4] was “largely unaffected”, the “cell cycle exit (phosphorylated Rb, cyclin A, BrdU incorporation)” value [5] was “not affected” and the p53 levels [5] was “still reduced”. The SA-β-gal accumulation ([5]; seven days) was “failed to accumulate”.
